According to a compilation of properties of binary mixtures (doi:10.1039/c6ra15476j):

Assay: xn = mol fraction of the nth substance listed
Conditions: 100 kPa

CC(=O)c1ccccc1 + CC[n+]1ccn(C)c1.F[B-](F)(F)F
Conditions | speed of sound, 293.15 K [m/s] | speed of sound, 303.15 K [m/s] | speed of sound, 313.15 K [m/s] | speed of sound, 323.15 K [m/s] | speed of sound, 333.15 K [m/s] | viscosity, 293.15 K [mPa·s] | viscosity, 303.15 K [mPa·s] | viscosity, 313.15 K [mPa·s] | viscosity, 323.15 K [mPa·s] | viscosity, 333.15 K [mPa·s]
x1 = 0.0416 | 1640 | 1608 | 1581 | 1555 | – | 32.1 | 21.2 | 15.4 | 11.6 | –
x1 = 0.094 | 1638 | – | 1572 | – | – | 25.5 | – | 12.3 | – | –
x1 = 0.195 | 1628 | 1591 | 1560 | 1530 | 1502 | 21.7 | 14.3 | 10.9 | 8.1 | 7.2
x1 = 0.2999 | – | 1581 | 1550 | 1519 | 1490 | – | 12.9 | 9.5 | 7.3 | 5.8
x1 = 0.4003 | – | 1571 | 1538 | – | – | – | 11 | 8.1 | – | –
x1 = 0.4989 | 1598 | – | 1527 | – | 1462 | 12.3 | – | 6 | – | 3.49
x1 = 0.5979 | 1583 | 1546 | 1511 | 1477 | 1442 | 8.7 | 6.5 | 5.2 | 4.14 | 3.39
x1 = 0.7005 | 1564 | 1528 | 1491 | 1457 | 1422 | 6.8 | 4.97 | 3.84 | 3.1 | 2.58
x1 = 0.8007 | 1543 | 1507 | 1472 | 1437 | 1400 | 4.74 | 3.61 | 3.09 | 2.36 | 2
x1 = 0.8918 | 1522 | 1485 | – | 1413 | – | 3.2 | 2.56 | – | 1.76 | –
x1 = 0.9498 | 1509 | 1471 | – | 1398 | – | 2.45 | 2.03 | – | 1.42 | –
x1 = 1 | 1497 | 1460 | 1423 | 1387 | – | 1.91 | 1.65 | 1.37 | 1.17 | –
